Literature values, collected in US20120135104A1, “Enhanced Absorption of Omega Fatty Acid Oils” (priority 2010, published 2012).

Conditions: single emulsifier

HLB value: about 15
Substance: polyoxyethylene sorbitan monooleate
